In paper PMC10023679, “Amide-to-ester substitution as a stable alternative to N-methylation for increasing membrane permeability in cyclic peptides” (Nature Communications, 2023):
Like-named read-outs stand apart in the source and are kept apart here. Non-standard residues stand in square brackets, D forms with d. Residues, ends and D or L forms follow the SMILES beside them. NMeY = CN[C@@H](Cc1ccc(O)cc1)C(=O)O; Hpla = O=C(O)[C@@H](O)Cc1ccc(O)cc1; Hica(2S) = CC(C)C[C@H](O)C(=O)O

Assays:
[1] = Stability in simulated intestinal fluid (SIF); type: in vitro ADME; settings: pH 6.8, 37 °C; for Degradation in SIF: 1–4 h
Procedure: (§1) The stability assay of peptides in SIF was conducted according to United States Pharmacopeia & National Formulary (USP 25-NF 20)[64] and the previous report[65] with some modifications as follows. SIF used in this study was prepared by dissolving pancreatin (1.25 mg/mL) (Sigma, P7545, 8 × USP specifications) in 50 mM phosphate buffer at pH 6.8. The solution was vortexed for 1 min, sonicated for 15 min, centrifuged at 20,000 × g for 10 min, and filtered before use. 57 μL of SIF was incubated at 37 °C for 15 min and 3 μL of 1 μM peptide solution in DMSO was added to the warmed […]. After 1, 2, or 4 h, 60 μL of ice-cold ultra-pure water containing 5% trifluoroacetic acid was added and 120 μL of 30% acetonitrile in ultra-pure water was added. The samples were filtered and injected into UPLC.

Mouse serum stability = type: in vitro ADME; settings: mouse serum containing 1% DMSO, 37 °C; for Stability in mouse serum: up to 24 h
Procedure: Compounds were incubated in mouse serum containing 1% DMSO at 37 °C for 24 h in triplicate. At each time point, 20 μL of the solution was aliquoted and diluted four times using acetonitrile to precipitate serum proteins. After centrifugation, the supernatant was diluted with water and the concentration of the intact peptide was quantified by LC-MS. For other peptides, the amount of residual intact peptides was evaluated after incubation in mouse plasma at 37 °C for 30 min. The amount of intact peptides was determined by taking the ratio of the LC-MS peak area of intact peptides just before and after the incubation.

in vitro = in vitro ADME; settings: PAMPA
[2] = Caco-2 assay (permeability across cell monolayers); type: in vitro ADME; settings: for Papp: Caco-2, 1 μM compounds in HBSS (pH 7.4) containing 10 mM HEPES and 1% DMSO, 3 h incubation at 37 °C, read-out: Caco-2 permeability Pa; for efflux ratio: read-out: Efflux ratio, Pe (basolateral-to-apical)/Pe (apical-to-basolateral)
[3] = 1,9-decadiene-water distribution coefficient; type: physicochemical; settings: decadiene and aqueous buffer
[4] = Stability in simulated gastric fluid (SGF); type: in vitro ADME; settings: SGF-containing pepsin, pH 1.2, 37 °C, 1–4 h
Procedure: as §1, with “SGF” for “SIF”, “pepsin (3.6” for “pancreatin (1.25”, “P7012, 3357 Unit/mg)” for “P7545, 8 × USP specifications)”, “an aqueous solution of 2 mg/mL sodium chloride (NaCl)” for “50 mM phosphate buffer”, “1.2.” for “6.8.”

Caco-2 cells = test: Caco-2 assay (permeability across cell monolayers); type: in vitro ADME; settings: 55 μM
Solubility assay = type: physicochemical; settings: phosphate buffer (pH 7.4) containing 1.2% DMSO, 37 °C, read-out: Water solubility

| SMILES | Papp (in vitro) [×10⁻⁶ cm/s] | Papp [2] [×10⁻⁶ cm/s] | log Ddec/w (1,9-decadiene–water distribution coefficient) [3] | Stability in mouse serum (Mouse serum stability) | Degradation in SGF [4] | Degradation in SIF ([1]; SIF-containing pancreatin) | further results |
| --- | --- | --- | --- | --- | --- | --- | --- |
| CC[C@H](C)[C@@H]1NC(=O)[C@H](Cc2ccc(O)cc2)NC(=O)[C@@H](N)CSSC[C@@H](C(=O)N2CCC[C@H]2C(=O)N[C@@H](CC(C)C)C(=O)NCC(N)=O)NC(=O)[C@H](CC(N)=O)NC(=O)[C@H](CCC(N)=O)NC1=O [oxytocin, reference compound] |  |  |  |  |  |  | Fraction degraded in SIF ([1]; SIF-containing pancreatin, at 4 h): more than 90%; metabolised at 4 h, 0.05 μM ([1]; simulated intestinal fluid (SIF) containing pancreatin, at 4 h, read-out: Fraction degraded in SIF): 94% |
| CC(C)C[C@H](NC(=O)[C@H](CC(C)C)NC(=O)[C@@H](CC(C)C)NC(=O)[C@H](CC(C)C)NC(=O)[C@H](Cc1ccc(O)cc1)OC(=O)[C@H]1CCCN1)C(N)=O [DP1L-NH2] (H-[dP][Hpla]L[dL]LL-NH2) |  |  |  |  |  |  | Time within which degraded in mouse serum (Mouse serum stability): ≤ 2 h |
| CC(C)C[C@@H]1NC(=O)[C@H](Cc2ccc(O)cc2)OC(=O)[C@H]2CCCN2C(=O)[C@H](CC(C)C)NC(=O)[C@H](CC(C)C)NC(=O)[C@@H](CC(C)C)NC1=O [DP1] (cyclo(LL[dP][Hpla]L[dL])) | 2.9 | 2 | 1.2 | stable | no significant degradation | no significant degradation |  |
| CC(C)C[C@@H]1NC(=O)[C@@H](CC(C)C)NC(=O)[C@H](CC(C)C)NC(=O)[C@H](Cc2ccc(O)cc2)N(C)C(=O)[C@H]2CCCN2C(=O)[C@H](CC(C)C)NC1=O [MP1] (cyclo(LL[dP][NMeY]L[dL])) | 1.7 | 0.6 | 0.052 | stable | no significant degradation | no significant degradation |  |
| CC(C)C[C@@H]1NC(=O)[C@@H](CC(C)C)NC(=O)[C@H](CC(C)C)OC(=O)[C@H](Cc2ccc(O)cc2)NC(=O)[C@H]2CCCN2C(=O)[C@H](CC(C)C)NC1=O [DP2] (cyclo(LL[dP]Y[Hica(2S)][dL])) | 2 | 0.9 |  |  |  |  | efflux ratio ([2]; Caco-2, pH 7.4, Inhibitor (+): quinidine, sulfasalazine, benzbromarone, 2 h incubation): 1.05; efflux ratio ([2]; Caco-2, pH 7.4, Inhibitor (–), 1 μM, 2 h incubation): 27.2; Papp A→B ([2]; Caco-2, pH 7.4, Inhibitor (+): preincubated with 50 µM quinidine, 20 µM sulfasalazine, 30 µM benzbromarone, 2 h incubation, read-out: Pe (apical-to-basolateral)): 14.6 ± 3.5 ×10⁻⁶ cm/s; Papp B→A ([2]; Caco-2, pH 7.4, Inhibitor (+): preincubated with 50 µM quinidine, 20 µM sulfasalazine, 30 µM benzbromarone, 2 h incubation, read-out: Pe (basolateral-to-apical)): 15.3 ± 1.1 ×10⁻⁶ cm/s; Papp A→B at 2 h, 1 μM ([2]; human, Caco-2, pH 7.4, Inhibitor (–), 1 μM, 2 h incubation, read-out: Pe (apical-to-basolateral)): 1.5 ± 0.4 ×10⁻⁶ cm/s; Papp B→A at 2 h, 1 μM ([2]; human, Caco-2, pH 7.4, Inhibitor (–), 1 μM, 2 h incubation, read-out: Pe (basolateral-to-apical)): 40.8 ± 11 ×10⁻⁶ cm/s; Caco-2 permeability compared with CP1 at higher concentration (Caco-2 cells): significantly higher permeability than CP1 |
| CC(C)C[C@@H]1NC(=O)[C@H](Cc2ccc(O)cc2)NC(=O)[C@H]2CCCN2C(=O)[C@H](CC(C)C)NC(=O)[C@H](CC(C)C)NC(=O)[C@@H](CC(C)C)NC1=O [CP1] (cyclo(LL[dP]YL[dL])) |  |  | −0.74 | stable | no significant degradation | no significant degradation | solubility kinetic at 4 h (Solubility assay): > 100 µM |
